Consider 13 compounds from patent US5493024A, “3,4,N-trisubstituted-4,5-dihydro-1H-pyrazole-1-carboxamides and their use as insectioides” (DowElanco, priority 1993, dated 1996).

Converted amounts (≈) assume the structure as drawn. Some results are limits rather than exact numbers.

One may read the LC50 as the concentration that kills 50% of the test population.

Series [1] relates to beet armyworm. Description: Effect on beet armyworm, contact and ingestion test (treated cotton leaf discs). Type of series: in vivo, S. exigua (beet armyworm). Particulars: second-instar larvae, sprayed cotton leaf discs, 5 days at 25° C; for LC50: Spodoptera exigua, foliar, 120 h, read-out: BEET ARMYWORM Contact and Ingestion Test LC50, ppm. The method, then: (§1) Effect on Tobacco Budworm and Beet Armyworm by Leaf Ingestion and/or Contact.
(§2) Stock solutions of the compounds to be tested having a known concentration were prepared by dissolving weighed amounts in a 90:10 mixture of high-purity acetone and ethanol and these solutions were diluted with distilled water (containing 0.05 percent by weight Tween 20™ surfactant) to obtain the spray solutions of known concentration employed. Greenhouse-grown cotton leaves of uniform age were cut into 2.5 cm diameter discs and one disc was placed in the bottom of each of a number of 30 mL plastic cups. The cups were then sprayed by means of a track sprayer applying 0.055 mL of spray solution per cup. The leaf discs were allowed to dry and then a single second-instar H. virescens (tobacco budworm) or S. exigua (beet armyworm) larva was added to each cup and each cup was capped with a perforated plastic lid. Ten cups were prepared for each insect species and each application rate and five applications rates were usually run. Treated cups were stored for 5 days at 25° C. and were then graded for mortality. Untreated controls and positive controls (cypermethrin) were run simultaneously. The amount of test chemical required to kill half of the larvae (LD50) was calculated.

The test system of series [2] is beet armyworm. The series is described as follows: Effect on beet armyworm, contact test (treated Teflon discs). It counts as in vivo, S. exigua (beet armyworm). Particulars: second-instar larvae, sprayed Teflon discs 24 hours, then 5 more days on untreated leaf, 25° C; for LC50: Spodoptera exigua, 144 h, read-out: BEET ARMYWORM Contact Test LC50, ppm. As to the method: (§3) Effect on Tobacco Budworm and Beet Armyworm by Contact.
(§4) Stock solutions of the compounds to be tested having a known concentration were prepared by dissolving weighed amounts in a 90:10 mixture of high-purity acetone and ethanol and these solutions were diluted with distilled water (containing 0.05 percent by weight Tween 20™ surfactant) to obtain the spray solutions of known concentration employed. Teflon™ discs 5 cm in diameter were placed in plastic petri dishes of slightly larger diameter and these dishes were sprayed by means of a track sprayer applying 0.104 mL of spray solution per cup. The Teflon™ discs were allowed to dry, a single second-instar H. virescens (tobacco budworm) or S. exigua (beet armyworm) larva was placed on each Teflon™ disc, and each disc was capped with a plastic lid. Ten Teflon™ discs were prepared for each application rate and five application rates were usually run. Treated discs were stored for 24 hours at 25° C. and then the Teflon™ disc was removed and replaced with an untreated cotton leaf disc. After 5 more days of storage at 25 ° C. the dishes were graded for mortality. Untreated controls and positive controls (cypermethrin) were run simultaneously. The amount of test chemical required to kill half of the larvae (LD50) was calculated.

Series [3] has as its system tobacco budworm. The series is described as follows: Effect on tobacco budworm, contact and ingestion test (treated cotton leaf discs). Type of series: in vivo, H. virescens (tobacco budworm). Particulars: second-instar larvae, sprayed cotton leaf discs, 5 days at 25° C; for LC50: Heliothis virescens, foliar, 120 h, read-out: TOBACCO BUDWORM Contact and Ingestion Test LC50, ppm. As to the method:
as §1, §2

For series [4], the system named is tobacco budworm. Description: Effect on tobacco budworm, contact test (treated Teflon discs). Type of series: in vivo, H. virescens (tobacco budworm). Particulars: second-instar larvae, sprayed Teflon discs 24 hours, then 5 more days on untreated leaf, 25° C; for LC50: Heliothis virescens, 144 h, read-out: TOBACCO BUDWORM Contact Test LC50, ppm. The method, then: as §3, §4

Series [5] has as its system Blattella germanica nymphs. The series is described as follows: Effect on cockroaches, contact test (treated vials). It counts as in vivo. Particulars: 168 h, 50 ppm solution, after 7 days, 27° C, read-out: percent control, contact test. The method, then: (§5) Two hundred ppm stock solutions of the compounds to be tested were prepared by dissolving 2.4 milligrams (mg) of each test compound in 12 mL of acetone; four lower concentration solutions were prepared by serial dilution using 3 mL of solution. A 0.5 mL portion of each test solution was pipetted onto 0.2 g of yellow corn meal placed in a small test tube cap (Fisher 02-706-33) and the mixture was placed in a fume hood overnight to allow the solvent to evaporate. […] Each cap was then placed in a 9 cm (centimeter) diameter Petri plate along with a 2 dram vial containing a cotton wick and water. A 0.5 mL portion of each test solution was also pipetted into a 20 mL borosilicate glass scintillation vial. The vials were placed on a roller mixer and the acetone was allowed to evaporate while the vials rolled. […] Five late third or early fourth instar Blattella germanica nymphs weighing 0.01-0.04 g were placed in each vial and each Petri plate and covers were applied loosely to allow entry of air. Each Petri plate and vial was held at 27° C., the Petri plates for 21 days and the vials for 7 days. The percent of mortality was read periodically and at the end of the test.

The subject of series [6] is Blattella germanica nymphs. The series is described as follows: Effect on cockroaches, ingestion test (treated corn meal). It counts as in vivo. Particulars: 504 h, after 21 days, 27° C, read-out: percent control, ingestion test; for mortality at 12.5 ppm: 12.5 ppm solution; for mortality at 50 ppm: 50 ppm solution; for mortality at 200 ppm: 200 ppm solution. The method, then:
as §5

Take `O=C(Nc1ccc(OC(F)(F)F)cc1)N1CC(c2ncc(Cl)cn2)C(c2ccc(F)cc2)=N1` (stereo not shown) [T, 4-(5-Chloro-2-pyrimidinyl)-4,5-dihydro-3-(4-fluorophenyl)-N-(4-trifluoromethoxyphenyl)-1H-pyrazole-1-carboxamide]: the LC50 worked out at 1.4 µg/mL (≈ 2.92 µM) with beet armyworm [1], 2.2 µg/mL (≈ 4.59 µM) in the series on beet armyworm [2], 1.3 µg/mL (≈ 2.71 µM) with tobacco budworm [3] and 7.5 µg/mL (≈ 15.6 µM) with tobacco budworm [4]. Moreover, the mortality at 50 ppm is 100% in series [5] and around 100% in series [6]. In addition, the mortality at 12.5 ppm in series [6] is around 100%. The mortality at 200 ppm in series [6] was determined as 100%.
Take `O=C(Nc1ccc(SC(F)(F)F)cc1)N1CC(c2ccc(C(F)(F)F)cn2)C(c2ccc(F)cc2)=N1` (stereo not shown) [L, 4,5-Dihydro-3-(4-fluorophenyl)-4-(5-trifluoromethyl-2-pyridinyl)-N-((4-trifluoromethylthio)phenyl)-1H-pyrazol-1-carboxamide]: the LC50 with beet armyworm [1] was 7.9 µg/mL (≈ 14.9 µM); in the series with beet armyworm [2], above 80 µg/mL; in the series on tobacco budworm [3], 4.2 µg/mL (≈ 7.95 µM); in the series with tobacco budworm [4] it was 63.5 µg/mL (≈ 120 µM).
The corresponding values for `O=C(Nc1ccc(OC(F)(F)F)cc1)N1CC(c2ccc(C(F)(F)F)cn2)C(c2ccc(F)cc2)=N1` (stereo not shown) [H, 4,5-Dihydro-3-(4-fluorophenyl)-N-(4-trifluoromethoxyphenyl)-4-(5-trifluoromethyl-2-pyridinyl)-1H-pyrazole-1-carboxamide] are 1.3 µg/mL (≈ 2.54 µM), below 5 µg/mL, 2.3 µg/mL (≈ 4.49 µM) and 23.3 µg/mL (≈ 45.5 µM).
The corresponding values for `O=C(Nc1ccc(C(F)(F)F)cc1)N1CC(c2ccc(C(F)(F)F)cn2)C(c2ccc(Cl)cc2)=N1` (stereo not shown) [B, 3-(4-Chorophenyl)-4,5-dihydro-N-(4-trifluoromethylphenyl)-4-(5-trifluoromethyl-2-pyridinyl)-1H-pyrazole-1-carboxamide] are 10 µg/mL (≈ 19.5 µM), above 80 µg/mL, 7.6 µg/mL (≈ 14.8 µM) and above 80 µg/mL.
As for `N#Cc1ccc(C2CN(C(=O)Nc3ccc(OC(F)(F)F)cc3)N=C2c2ccc(Cl)cc2)nc1` (stereo not shown) [N], the LC50 in the series with beet armyworm [1] was 2.1 µg/mL (≈ 4.32 µM); in the series on beet armyworm [2], 7.1 µg/mL (≈ 14.6 µM); in the series with tobacco budworm [3], 1.5 µg/mL (≈ 3.09 µM); in the series on tobacco budworm [4] it was 18.3 µg/mL (≈ 37.7 µM).
As for “4,5-Dihydro-3-(4-fluorophenyl)-4-(4-fluoro-5-trifluoromethyl-2-pyridinyl)- N-(4-trifluoromethoxyphenyl)-1H-pyrazole-1-carboxamide”, the “BEET ARMYWORM Contact and Ingestion Test LC50, ppm” value with beet armyworm [1] is on record as 5.2 ppm. Also, in the series with beet armyworm [2] (8640 min), the “BEET ARMYWORM Contact Test LC50, ppm” value turned out to be 7.6 ppm. The “TOBACCO BUDWORM Contact and Ingestion Test LC50, ppm” value in the series on tobacco budworm [3] is reported as 10.0 ppm. Also, the “TOBACCO BUDWORM Contact Test LC50, ppm” value in the series with tobacco budworm [4] (8640 min) worked out at 80 ppm.
In the case of `O=C(Nc1ccc(C(F)(F)F)cc1)N1CC(c2cncc(Cl)n2)C(c2ccc(F)cc2)=N1` (stereo not shown) [Z, 4-(6-Chloro-2-pyrazinyl)-4,5-dihydro-3-(4-fluorophenyl)-N-(4-trifluoromethylphenyl)-1H-pyrazole-1-carboxamide], the values for the LC50 in the series on beet armyworm [1] and in the series with beet armyworm [2] were above 100 µg/mL and 75.8 µg/mL (≈ 163 µM), respectively.
For `O=C(Nc1ccc(OC(F)(F)F)cc1)N1CC(c2cc(C(F)(F)F)nc(C(F)(F)F)c2)C(c2ccccc2)=N1` (stereo not shown) [U, 4,5-Dihydro-4-(2,6-di(trifluoromethyl)-4-pyridinyl)-3-phenyl-N-(4-trifluoromethoxyphenyl)-1H-pyrazole-1-carboxamide] the same measures were 37.9 µg/mL (≈ 67.4 µM) and above 100 µg/mL.
For `O=C(Nc1ccc(C(F)(F)F)cc1)N1CC(c2cnc(C(F)(F)F)cn2)C(c2ccc(F)cc2)=N1` (stereo not shown) [Y, 4,5-Dihydro-3-(4-fluorophenyl)-N-(4-trifluoromethylphenyl)-4-(5-trifluoromethyl-2-pyrazinyl)-1H-pyrazole-1-carboxamide] the same measures were above 25 µg/mL and 10.5 µg/mL (≈ 21.1 µM).
Take `O=C(Nc1ccc(Cl)cc1)N1CC(c2ccc(C(F)(F)F)cn2)C(c2ccc(Cl)cc2)=N1` (stereo not shown) [D, 3-(4-Chlorophenyl)-N-(4-chlorophenyl)-4,5-dihydro-4-(5-trifluoromethyl-2-pyridinyl)-1H-pyrazole-1-carboxamide]: the LC50 in the series on beet armyworm [1] is 1.8 µg/mL (≈ 3.76 µM); in the series on beet armyworm [2], 12.6 µg/mL (≈ 26.3 µM); in the series with tobacco budworm [3], 2.1 µg/mL (≈ 4.38 µM); in the series with tobacco budworm [4], 35.6 µg/mL (≈ 74.3 µM).
Turning to `O=C(Nc1ccc(C(F)(F)F)cc1)N1CC(c2ccc(Cl)nn2)C(c2ccc(Cl)cc2)=N1` (stereo not shown) [AA, 4-(6-Chloro-3-pyridazinyl)-3-(4-chlorophenyl)-4,5-dihydro-N-(4-trifluoromethylphenyl)-1H-pyrazole-1-carboxamide], the LC50 in the series on beet armyworm [1] is 20.3 µg/mL (≈ 42.3 µM); in the series on beet armyworm [2], 11.7 µg/mL (≈ 24.4 µM).
As for `O=C(Nc1ccc(C(F)(F)F)cc1)N1CC(c2ccc(C(F)(F)F)cn2)C(c2ccc(F)cc2)=N1` (stereo not shown) [G, 4,5-Dihydro-3-(4-fluorophenyl)-N-(4-trifluoromethylphenyl)-4-(5-trifluoromethyl-2-pyridinyl)-1H-pyrazole-1-carboxamide], the LC50 in the series with beet armyworm [1] turned out to be 1 µg/mL (≈ 2.01 µM); in the series on beet armyworm [2] it was 5 µg/mL (≈ 10.1 µM); with tobacco budworm [3], 1.1 µg/mL (≈ 2.22 µM); with tobacco budworm [4], 8.7 µg/mL (≈ 17.5 µM). The mortality at 50 ppm was 100% in series [5] and around 100% in series [6]. Further, in series [6], the mortality at 12.5 ppm was around 100%. Moreover, the mortality at 200 ppm in series [6] is 100%.
As for `O=C(Nc1ccc(Cl)cc1)N1CC(c2ccc(C(F)(F)F)cn2)C(c2ccc(F)cc2)=N1` (stereo not shown) [I, N-(4-Chlorophenyl)-4,5-dihydro-3-(4-fluorophenyl)-4-(5-trifluoromethyl-2-pyridinyl)-1H-pyrazole-1-carboxamide], the LC50 with beet armyworm [1] is 2.1 µg/mL (≈ 4.54 µM); in the series with beet armyworm [2], below 5 µg/mL; with tobacco budworm [3], 1.3 µg/mL (≈ 2.81 µM); with tobacco budworm [4], 49.7 µg/mL (≈ 107 µM).
